In ChEMBL document CHEMBL1201861, “Genomics of Drug Sensitity in Cancer screening data, Wellcome Trust Sanger Institute”:

Experiments:
Assay in all cases: cells
COLO-824 = assay type: functional, cell-based, Homo sapiens; conditions: Homo sapiens, COLO-824
Description: SANGER: Inhibition of human COLO-824 cell growth in a cell viability assay.

HuTu80 = assay type: functional, cell-based, Homo sapiens, HUTU-80; conditions: Homo sapiens, HuTu80;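 also: growth inhibition of HuTu80 human cells, determined with a cell viability readout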
Description: SANGER: Inhibition of human HUTU-80 cell growth in a cell viability assay.

HOP-92 = assay type: functional, cell-based, Homo sapiens; conditions: Homo sapiens, HOP-92;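 also: cell viability readout, with IC50 reflecting inhibition of HOP-92 cell growth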
Description: SANGER: Inhibition of human HOP-92 cell growth in a cell viability assay.

NCI-H661 = assay type: functional, cell-based, Homo sapiens; conditions: Homo sapiens, NCI-H661;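 also: cell viability assay read-out, IC50 being the concentration that inhibits growth of the cells by half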
Description: SANGER: Inhibition of human NCI-H661 cell growth in a cell viability assay.

KINGS-1 = assay type: functional, cell-based, Homo sapiens; conditions: Homo sapiens, KINGS-1;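 also: cell viability assay measuring suppression of KINGS-1 cell growth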
Description: SANGER: Inhibition of human KINGS-1 cell growth in a cell viability assay.

HT-3 = assay type: functional, cell-based, Homo sapiens; conditions: Homo sapiens, HT-3;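 also: growth inhibition measured with a cell viability readout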
Description: SANGER: Inhibition of human HT-3 cell growth in a cell viability assay.

NCI-H520 = assay type: functional, cell-based, Homo sapiens; conditions: Homo sapiens, NCI-H520;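 also: growth inhibition of NCI-H520 cells, measured by a cell viability assay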
Description: SANGER: Inhibition of human NCI-H520 cell growth in a cell viability assay.

EGI-1 = assay type: functional, cell-based, Homo sapiens; conditions: Homo sapiens, EGI-1;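 also: cell viability readout used to gauge growth inhibition of EGI-1 cells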
Description: SANGER: Inhibition of human EGI-1 cell growth in a cell viability assay.

NCI-H810 = assay type: functional, cell-based, Homo sapiens; conditions: Homo sapiens, NCI-H810;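 also: IC50 reflects inhibition of cancer cell line growth, read out with a cell viability assay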
Description: SANGER: Inhibition of human NCI-H810 cell growth in a cell viability assay.

NCI-H2126 = assay type: functional, cell-based, Homo sapiens; conditions: Homo sapiens, NCI-H2126;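 also: growth inhibition of the cancer cell line, determined with a cell viability readout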
Description: SANGER: Inhibition of human NCI-H2126 cell growth in a cell viability assay.

LU-134-A = assay type: functional, cell-based; conditions: Homo sapiens
Description: SANGER: Inhibition of human LU-134-A cell growth in a cell viability assay.

CAL-51 = assay type: functional, cell-based, Homo sapiens; conditions: Homo sapiens, CAL-51;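 also: human CAL-51 cell line, growth inhibition read out via a cell viability assay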
Description: SANGER: Inhibition of human CAL-51 cell growth in a cell viability assay.

HCC1937 = assay type: functional, cell-based, Homo sapiens; conditions: Homo sapiens, HCC1937;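 also: growth inhibition measured with a cell viability read-out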
Description: SANGER: Inhibition of human HCC1937 cell growth in a cell viability assay.

UACC-893 = assay type: functional, cell-based, Homo sapiens; conditions: Homo sapiens, UACC-893
Description: SANGER: Inhibition of human UACC-893 cell growth in a cell viability assay.

NCI-H1770 = assay type: functional, cell-based; conditions: Homo sapiens;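 also: growth inhibition of NCI-H1770 cells determined with a viability readout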
Description: SANGER: Inhibition of human NCI-H1770 cell growth in a cell viability assay.

SNU1 = assay type: functional, cell-based; conditions: Homo sapiens;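 also: growth inhibition of human NCI-SNU-1 cells, measured with a cell viability assay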
Description: SANGER: Inhibition of human NCI-SNU-1 cell growth in a cell viability assay.

TE-10 = assay type: functional, cell-based, Homo sapiens; conditions: Homo sapiens, TE-10;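 also: growth inhibition of TE-10 cells, measured by a cell viability assay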
Description: SANGER: Inhibition of human TE-10 cell growth in a cell viability assay.

GI-ME-N = assay type: functional, cell-based, Homo sapiens; conditions: Homo sapiens, GI-ME-N;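 also: growth inhibition of human GI-ME-N cells, read out with a cell viability assay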
Description: SANGER: Inhibition of human GI-ME-N cell growth in a cell viability assay.

SK-NEP-1 = assay type: functional, cell-based; conditions: Homo sapiens;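 also: growth inhibition of human SK-NEP-1 cells, read out by a cell viability assay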
Description: SANGER: Inhibition of human SK-NEP-1 cell growth in a cell viability assay.

SK-HEP1 = assay type: functional, cell-based, Homo sapiens, SK-HEP-1; conditions: Homo sapiens, SK-HEP1;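 also: cell viability readout used to quantify reduction in proliferation of human SK-HEP-1 cells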
Description: SANGER: Inhibition of human SK-HEP-1 cell growth in a cell viability assay.

NCI-H209 = assay type: functional, cell-based; conditions: Homo sapiens;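 also: growth inhibition of human NCI-H209 cells, measured by a cell viability assay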
Description: SANGER: Inhibition of human NCI-H209 cell growth in a cell viability assay.

EOL1 = assay type: functional, cell-based; conditions: Homo sapiens;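 also: growth inhibition of EoL-1 cells, read out by a cell viability assay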
Description: SANGER: Inhibition of human EoL-1-cell cell growth in a cell viability assay.

NCI-N87 = assay type: functional, cell-based, Homo sapiens; conditions: Homo sapiens, NCI-N87;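 also: growth inhibition of human NCI-N87 cells, read out with a cell viability assay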
Description: SANGER: Inhibition of human NCI-N87 cell growth in a cell viability assay.

CAL-85-1 = assay type: functional, cell-based; conditions: Homo sapiens;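 also: growth inhibition of human CAL-85-1 cells, read out with a cell viability assay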
Description: SANGER: Inhibition of human CAL-85-1 cell growth in a cell viability assay.

CAL-120 = assay type: functional, cell-based, Homo sapiens; conditions: Homo sapiens, CAL-120;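 also: cell growth inhibition, read out as cell viability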
Description: SANGER: Inhibition of human CAL-120 cell growth in a cell viability assay.

GI-1 = assay type: functional, cell-based, Homo sapiens; conditions: Homo sapiens, GI-1
Description: SANGER: Inhibition of human GI-1 cell growth in a cell viability assay.

MN-60 = assay type: functional, cell-based; conditions: Homo sapiens;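 also: growth inhibition of the MN-60 cell line, determined with a cell viability assay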
Description: SANGER: Inhibition of human MN-60 cell growth in a cell viability assay.

Capan-2 = assay type: functional, cell-based, Homo sapiens; conditions: Homo sapiens, Capan-2;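 also: Capan-2 cell growth inhibition, read out with a viability assay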
Description: SANGER: Inhibition of human Capan-2 cell growth in a cell viability assay.

SW626 = assay type: functional, cell-based, Homo sapiens; conditions: Homo sapiens, SW626;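 also: growth inhibition of SW626 cells, measured with a cell viability assay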
Description: SANGER: Inhibition of human SW626 cell growth in a cell viability assay.

NCI-H1651 = assay type: functional, cell-based, Homo sapiens; conditions: Homo sapiens, NCI-H1651;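 also: Read-out is a cell viability assay, with IC50 expressing inhibition of NCI-H1651 cell growth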
Description: SANGER: Inhibition of human NCI-H1651 cell growth in a cell viability assay.

OCUB-M = assay type: functional, cell-based, Homo sapiens; conditions: Homo sapiens, OCUB-M;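 also: growth inhibition of the cancer cell line, read out through a cell viability assay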
Description: SANGER: Inhibition of human OCUB-M cell growth in a cell viability assay.

D-263MG = assay type: functional, cell-based, Homo sapiens; conditions: Homo sapiens, D-263MG
Description: SANGER: Inhibition of human D-263MG cell growth in a cell viability assay.

HMV-2 cell line = assay type: functional, cell-based, Homo sapiens; conditions: Homo sapiens, HMV-2;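 also: growth inhibition of HMV-II cells, read out with a cell viability assay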
Description: SANGER: Inhibition of human HMV-II cell growth in a cell viability assay.

KP-N-YS = assay type: functional, cell-based; conditions: Homo sapiens;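 also: cell viability assay measuring inhibition of cell line growth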
Description: SANGER: Inhibition of human KP-N-YS cell growth in a cell viability assay.

Ca9-22 = assay type: functional, cell-based, Homo sapiens; conditions: Homo sapiens, Ca9-22;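 also: growth inhibition of Ca9-22 cells, read out with a cell viability assay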
Description: SANGER: Inhibition of human Ca9-22 cell growth in a cell viability assay.

SK-N-FI = assay type: functional, cell-based, Homo sapiens; conditions: Homo sapiens, SK-N-FI;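 also: cell viability assay measuring growth inhibition of human SK-N-FI cells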
Description: SANGER: Inhibition of human SK-N-FI cell growth in a cell viability assay.

KARPAS-299 = assay type: functional, cell-based; conditions: Homo sapiens
Description: SANGER: Inhibition of human KARPAS-299 cell growth in a cell viability assay.

LU-139 = assay type: functional, cell-based; conditions: Homo sapiens
Description: SANGER: Inhibition of human LU-139 cell growth in a cell viability assay.

HC-1 = assay type: functional, cell-based; conditions: Homo sapiens;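 also: growth inhibition of HC-1 cells measured by a cell viability assay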
Description: SANGER: Inhibition of human HC-1 cell growth in a cell viability assay.

NCI-H446 = assay type: functional, cell-based; conditions: Homo sapiens;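 also: growth inhibition of NCI-H446 cells determined by a cell viability assay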
Description: SANGER: Inhibition of human NCI-H446 cell growth in a cell viability assay.

COLO-741 = assay type: functional, cell-based, Homo sapiens; conditions: Homo sapiens, COLO-741
Description: SANGER: Inhibition of human COLO-741 cell growth in a cell viability assay.

GMS-10 = assay type: functional, cell-based, Homo sapiens; conditions: Homo sapiens, GMS-10;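 also: growth inhibition of GMS-10 cells, read out as cell viability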
Description: SANGER: Inhibition of human GMS-10 cell growth in a cell viability assay.

HAL-01 = assay type: functional, cell-based; conditions: Homo sapiens;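 also: growth inhibition of human HAL-01 cells, read out with a cell viability assay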
Description: SANGER: Inhibition of human HAL-01 cell growth in a cell viability assay.

LB2518-MEL = assay type: functional, cell-based, Homo sapiens; conditions: Homo sapiens, LB2518-MEL;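 also: growth inhibition of human LB2518-MEL cells, measured with a cell viability assay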
Description: SANGER: Inhibition of human LB2518-MEL cell growth in a cell viability assay.

HT = assay type: functional, cell-based; conditions: Homo sapiens
Description: SANGER: Inhibition of human HT cell growth in a cell viability assay.

KYSE-410 = assay type: functional, cell-based, Homo sapiens; conditions: Homo sapiens, KYSE-410;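 also: growth inhibition of KYSE-410 cells, measured through a cell viability readout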
Description: SANGER: Inhibition of human KYSE-410 cell growth in a cell viability assay.

ES1 = assay type: functional, cell-based, Homo sapiens; conditions: Homo sapiens, ES1;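 also: growth inhibition of ES1 cells, read out with a cell viability assay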
Description: SANGER: Inhibition of human ES1 cell growth in a cell viability assay.

ES5 = assay type: functional, cell-based, Homo sapiens; conditions: Homo sapiens, ES5;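 also: growth inhibition of human ES5 cells, read out by a cell viability assay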
Description: SANGER: Inhibition of human ES5 cell growth in a cell viability assay.

KNS-42 = assay type: functional, cell-based, Homo sapiens; conditions: Homo sapiens, KNS-42;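 also: growth inhibition of KNS-42 cells, read out with a cell viability assay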
Description: SANGER: Inhibition of human KNS-42 cell growth in a cell viability assay.

KURAMOCHI = assay type: functional, cell-based; conditions: Homo sapiens;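 also: growth inhibition of KURAMOCHI cells, read out with a cell viability assay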
Description: SANGER: Inhibition of human KURAMOCHI cell growth in a cell viability assay.

EW-11 = assay type: functional, cell-based, Homo sapiens; conditions: Homo sapiens, EW-11;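 also: growth inhibition of human EW-11 cells, measured with a cell viability assay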
Description: SANGER: Inhibition of human EW-11 cell growth in a cell viability assay.

SMILES: Nc1ccn([C@@H]2O[C@H](CO)[C@@H](O)[C@@H]2O)c(=O)n1 [CYTARABINE]
- IC50 (COLO-824): > 2 µM
- IC50 (HuTu80): 0.561 µM
- IC50 (HOP-92): 0.354 µM
- IC50 (NCI-H661): 1.73 µM
- IC50 (KINGS-1): > 2 µM
- IC50 (HT-3): 1.38 µM
- IC50 (NCI-H520): > 2 µM
- IC50 (EGI-1): 1.11 µM
- IC50 (NCI-H810): > 2 µM
- IC50 (NCI-H2126): > 2 µM
- IC50 (LU-134-A): > 2 µM
- IC50 (CAL-51): 0.571 µM
- IC50 (HCC1937): > 2 µM
- IC50 (UACC-893): > 2 µM
- IC50 (NCI-H1770): > 2 µM
- IC50 (SNU1): 0.0968 µM
- IC50 (TE-10): > 2 µM
- IC50 (GI-ME-N): 1.66 µM
- IC50 (SK-NEP-1): > 2 µM
- IC50 (SK-HEP1): 0.556 µM
- IC50 (NCI-H209): > 2 µM
- IC50 (EOL1): 0.803 µM
- IC50 (NCI-N87): > 2 µM
- IC50 (CAL-85-1): > 2 µM
- IC50 (CAL-120): > 2 µM
- IC50 (GI-1): 0.339 µM
- IC50 (MN-60): 0.935 µM
- IC50 (Capan-2): > 2 µM
- IC50 (SW626): > 2 µM
- IC50 (NCI-H1651): > 2 µM
- IC50 (OCUB-M): > 2 µM
- IC50 (D-263MG): 1.17 µM
- IC50 (HMV-2 cell line): 0.124 µM
- IC50 (KP-N-YS): > 2 µM
- IC50 (Ca9-22): 0.321 µM
- IC50 (SK-N-FI): > 2 µM
- IC50 (KARPAS-299): > 2 µM
- IC50 (LU-139): > 2 µM
- IC50 (HC-1): 1.08 µM
- IC50 (NCI-H446): > 2 µM
- IC50 (COLO-741): > 2 µM
- IC50 (GMS-10): 0.396 µM
- IC50 (HAL-01): 0.328 µM
- IC50 (LB2518-MEL): > 2 µM
- IC50 (HT): > 2 µM
- IC50 (KYSE-410): > 2 µM
- IC50 (ES1): 0.013 µM
- IC50 (ES5): 0.243 µM
- IC50 (KNS-42): > 2 µM

SMILES: O=C(NOCC1CC1)c1ccc(F)c(F)c1Nc1ccc(I)cc1Cl [CI-1040]
- IC50 (COLO-824): > 10 µM
- IC50 (HuTu80): > 10 µM
- IC50 (HOP-92): 4.26 µM
- IC50 (NCI-H661): > 10 µM
- IC50 (KINGS-1): > 10 µM
- IC50 (HT-3): > 10 µM
- IC50 (NCI-H520): > 10 µM
- IC50 (EGI-1): 3.61 µM
- IC50 (NCI-H810): > 10 µM
- IC50 (NCI-H2126): 9.01 µM
- IC50 (LU-134-A): > 10 µM
- IC50 (CAL-51): > 10 µM
- IC50 (HCC1937): 9.29 µM
- IC50 (UACC-893): > 10 µM
- IC50 (NCI-H1770): > 10 µM
- IC50 (SNU1): 0.754 µM
- IC50 (TE-10): > 10 µM
- IC50 (GI-ME-N): > 10 µM
- IC50 (SK-NEP-1): > 10 µM
- IC50 (SK-HEP1): 5.93 µM
- IC50 (NCI-H209): > 10 µM
- IC50 (EOL1): 0.0415 µM
- IC50 (NCI-N87): > 10 µM
- IC50 (CAL-85-1): > 10 µM
- IC50 (CAL-120): > 10 µM
- IC50 (GI-1): > 10 µM
- IC50 (MN-60): > 10 µM
- IC50 (KURAMOCHI): > 10 µM
- IC50 (Capan-2): > 10 µM
- IC50 (SW626): 4.04 µM
- IC50 (NCI-H1651): > 10 µM
- IC50 (OCUB-M): > 10 µM
- IC50 (D-263MG): 5.88 µM
- IC50 (HMV-2 cell line): 0.645 µM
- IC50 (KP-N-YS): > 10 µM
- IC50 (Ca9-22): 2.97 µM
- IC50 (SK-N-FI): 8.81 µM
- IC50 (KARPAS-299): > 10 µM
- IC50 (LU-139): > 10 µM
- IC50 (HC-1): > 10 µM
- IC50 (EW-11): > 10 µM
- IC50 (NCI-H446): > 10 µM
- IC50 (COLO-741): 3.19 µM
- IC50 (GMS-10): > 10 µM
- IC50 (HAL-01): > 10 µM
- IC50 (LB2518-MEL): 0.716 µM
- IC50 (HT): > 10 µM
- IC50 (KYSE-410): > 10 µM
- IC50 (ES1): > 10 µM
- IC50 (ES5): > 10 µM
- IC50 (KNS-42): > 10 µM

SMILES: Cn1cc(C2=C(c3ccc(Cl)cc3Cl)C(=O)NC2=O)c2ccccc21 [SB-216763]
- IC50 (COLO-824): > 10 µM
- IC50 (HuTu80): > 10 µM
- IC50 (HOP-92): > 10 µM
- IC50 (NCI-H661): > 10 µM
- IC50 (KINGS-1): > 10 µM
- IC50 (HT-3): > 10 µM
- IC50 (NCI-H520): > 10 µM
- IC50 (EGI-1): > 10 µM
- IC50 (NCI-H810): > 10 µM
- IC50 (NCI-H2126): > 10 µM
- IC50 (LU-134-A): > 10 µM
- IC50 (CAL-51): > 10 µM
- IC50 (HCC1937): > 10 µM
- IC50 (UACC-893): > 10 µM
- IC50 (NCI-H1770): 0.294 µM
- IC50 (SNU1): > 10 µM
- IC50 (TE-10): > 10 µM
- IC50 (GI-ME-N): > 10 µM
- IC50 (SK-NEP-1): > 10 µM
- IC50 (SK-HEP1): > 10 µM
- IC50 (NCI-H209): > 10 µM
- IC50 (NCI-N87): > 10 µM
- IC50 (CAL-85-1): > 10 µM
- IC50 (CAL-120): > 10 µM
- IC50 (GI-1): > 10 µM
- IC50 (MN-60): > 10 µM
- IC50 (KURAMOCHI): > 10 µM
- IC50 (Capan-2): > 10 µM
- IC50 (SW626): > 10 µM
- IC50 (NCI-H1651): > 10 µM
- IC50 (OCUB-M): > 10 µM
- IC50 (D-263MG): > 10 µM
- IC50 (HMV-2 cell line): 7.68 µM
- IC50 (KP-N-YS): > 10 µM
- IC50 (Ca9-22): > 10 µM
- IC50 (SK-N-FI): > 10 µM
- IC50 (KARPAS-299): > 10 µM
- IC50 (LU-139): > 10 µM
- IC50 (HC-1): > 10 µM
- IC50 (EW-11): > 10 µM
- IC50 (NCI-H446): > 10 µM
- IC50 (COLO-741): > 10 µM
- IC50 (GMS-10): > 10 µM
- IC50 (HAL-01): > 10 µM
- IC50 (LB2518-MEL): > 10 µM
- IC50 (HT): > 10 µM
- IC50 (KYSE-410): > 10 µM
- IC50 (ES1): > 10 µM
- IC50 (ES5): > 10 µM
- IC50 (KNS-42): > 10 µM
